# Laboratory results taken from patent US11570992B2, “Bicyclic compounds” (BASF SE, priority 2016, dated 2023).
# Assays:
# Assay type in all cases: in vivo
# [1] = test system: boll weevil (Anthonomus grandis); experiment: Boll weevil test, 96-well microtiter plates with insect diet and eggs; conditions: 120 h, egg and larval mortality after 5 days, read-out: mortality in comparison with untreated controls
# Description: Boll Weevil (Anthonomus gandis)
# For evaluating control of boll weevil (Anthonomus grandis) the test unit consisted of 96-well-microtiter plates containing an insect diet and 5-10 A. grandis eggs.
# The compounds were formulated using a solution containing 75% v/v water and 25% v/v DMSO. Different concentrations of formulated compounds were sprayed onto the insect diet at 5 μl, using a custom built micro atomizer, at two replications.
# After application, microtiter plates were incubated at about 25±1° C. and about 75±5% relative humidity for 5 days. Egg and larval mortality was then visually assessed.
# [2] = test system: vetch aphid (Megoura viciae); experiment: Vetch aphid test, broad bean leaf disks in 24-well plates; conditions: foliar, 120 h, 5 days, read-out: mortality in comparison with untreated controls
# Description: Vetch Aphid (Megoura viciae)
# For evaluating control of vetch aphid (Megoura viciae) through contact or systemic means the test unit consisted of 24-well-microtiter plates containing broad bean leaf disks.
# The compounds were formulated using a solution containing 75% v/v water and 25% v/v DMSO. Different concentrations of formulated compounds were sprayed onto the leaf disks at 2.5 μl, using a custom built micro atomizer, at two replications.
# After application, the leaf disks were air-dried and 5-8 adult aphids placed on the leaf disks inside the microtiter plate wells. The aphids were then allowed to suck on the treated leaf disks and incubated at about 23±1° C. and about 50±5% relative humidity for 5 days. Aphid mortality and fecundity was then visually assessed.
# [3] = test system: Diamond Back Moth (Plutella xylostella); experiment: Diamond back moth test, dipped cabbage leaves; conditions: 3rd instar larvae, 72 hours after treatment, read-out: mortality in comparison with untreated controls
# Description: Diamond Back Moth (Plutella xylostella)
# The active compound is dissolved at the desired concentration in a mixture of 1:1 (vol:vol) distilled water:acetone. Surfactant (Kinetic® HV) is added at a rate of 0.01% (vol/vol). The test solution is prepared at the day of use.
# Leaves of cabbage were dipped in test solution and air-dried. Treated leaves were placed in petri dishes lined with moist filter paper and inoculated with ten 3rd instar larvae. Mortality was recorded 72 hours after treatment. Feeding damages were also recorded using a scale of 0-100%.
SMILES,mortality at 800 ppm [1] [%],mortality at 800 ppm [2] [%],mortality at 300 ppm [3] [%]
"Cn1c(C(F)(F)F)cc2nc(-c3ccccc3Cl)cn2c1=O [Example C-1, 2-(2-chlorophenyl)-6-methyl-7-(trifluoromethyl)imidazo[1,2-c]pyrimidin-5-one]",> 75,,
"CCS(=O)(=O)c1cccnc1-c1nc2cc(C(F)(F)F)cc(=O)n2n1C [Example C-4, 2-(3-ethylsulfonyl-2-pyridyl)-3-methyl-7-(trifluoromethyl)-[1,2,4]triazolo[1,5-a]pyridin-5-one]",,> 75,> 75
